In patent US11759480B2, “Compositions and methods for CAR T cell therapy” (ENDOCYTE, INC., priority 2017, dated 2023):

Columns and labels:
FR+ MDA-MB-231 tumors = experiment: FITC-CAR-T toxicity and spleen size in MDA-MB-231 s.c. model (Example 37); type: in vivo, mice
Experimental: The evaluation of FITC-CAR-T proliferation and related toxicity in both naïve mice and mice bearing FR+ tumor xenografts was tested. To evaluate whether FITC-CAR-T proliferation in vivo is dependent on the co-existence of the bridge (e.g. EC17) and the tumor antigen (e.g. folate receptor), FITC-CAR-T proliferation in vivo was compared in naïve mice and mice bearing FR+ tumor xenografts, either with or without EC17. 5-8 million CAR-T cells (as indicated in FIGS. 42 and 43) were administered (i.v.) into naïve mice without tumors and mice bearing FR+ tumor xenografts (80-200 mm3). 500 nmol/kg EC17 was dosed 4 hours before and three times per week post CAR-T administration, if desired. Mice were monitored for body weight changes and CAR-T cell count in blood circulation; some mice were also euthanized weekly to evaluate organs. […] CAR-T cell count in blood samples was also compared to evaluate CAR-T proliferation. […] Since the enlargement of spleen size is another indicator for CAR-T proliferation in vivo, spleen size was also measured as shown in FIG. 43B.
For FIG. 42, the MDA-MB-231 s.c. model was used. For FIG. 43A, the HEK-FRa s.c. xenograft model was used. For FIG. 43B, the MDA-MB-231 s.c. model was used.

OV90 = experiment: FITC-CAR-T/EC17 therapy, OV90 model (Example 28); type: in vivo, NSG mice; details: 500 nmol/kg weekly, 5 million FITC-CAR-T
Experimental: (§1) To test whether FITC-CAR-T/EC17 therapy has anti-tumor activity in various FR+ tumor models, NSG mice were subcutaneously implanted with MDA-MB-231 (triple negative breast cancer cell line), OV90 (human ovarian cancer cell line), KB (human cervical adenocarcinoma cell line), SKOV-3 (human ovarian carcinoma cell line), or HEK293-FRa (HEK293 stably-transfected with human FRa). When tumor size reached […], one dose of EC17 at 500 nmol/kg of body weight was injected by tail vein followed with administering of 5 million FITC-CAR-T cells 4 hours later. 500 nmol/kg EC17 was dosed once every week after the initial EC17/CAR-T administration (about day 7), tumor size and body weights of mice were monitored three times per week. The EC17 dosing days were labeled as green dashed vertical lines in the graph. […] EC17 dose-dependent temporary body weight loss was also observed in all tumor bearing mice, indicating the activation of CAR-Ts is EC17-dependent in these mice.

MDA-MB-231 tumor = experiment: CAR-T anti-tumor activity and toxicity at different EC17 dose levels (Example 27); type: in vivo
Experimental: Immunodeficient NSG mice (Jackson Laboratory) were used to study CAR T cell anti-tumor activity and its toxicity in the presence of different EC17 dose levels. MDA-MB-231 tumor cells were used to establish subcutaneous solid tumor xenografts. When tumor volume of around 100-150 mm^3 was reached, various concentrations of EC17 were pre-injected 4 hours before i.v. injection of 10 million CAR-T cells. Various concentrations of EC17 were then administrated three times per week after the initial EC17 and CAR-T cell injections. The negative control group was injected with 500 nmol/kg EC17 (4 hour in advance) and […] unmodified T cells. 500 nmol/kg EC17 was then administrated three times per week after initial injection. Tumor size and body weight were measured to monitor the anti-tumor activity and the toxicity. […] By adjusting the EC17 dose level, CAR-T anti-tumor activity can be maintained while the resulting body weight loss (toxicity) can be reduced. In FIGS. 20A and 20B, EC17 is also referred to as “adaptor” or “bi-specific adaptor”.

[1] = system: anti-FITC CAR T cells with MDA-MB-231; experiment: In vitro interferon-γ assay (Example 22); type: cell-based, Human
Experimental: In order to study the relationship between bridge dose and anti-FITC CAR T cell activation, a folate receptor positive cancer cell line (MDA-MB-231) was seeded at a density of 10^4 cells/100 ul of media in each well of a 96-well plate and the cells were grown overnight. Anti-FITC CAR T cells (5×10^4 cells) were then added into each well containing cancer cells with various concentrations of Folate-FITC (from 0.001 nM to 100 μM) for 6-24 hours. After co-incubation, the plates containing anti-FITC CAR T cells and cancer cells were centrifuged for 10 min at 350×g to remove cells and cellular debris, and 50 ul of supernatant was assayed by ELISA (Human IFN-γ ELISA kit from Biolegend) to detect IFN-γ production by anti-FITC CAR T cells.

SKOV-3 = experiment: FITC-CAR-T/EC17 therapy, SKOV-3 model (Example 28); type: in vivo, NSG mice; details: 500 nmol/kg weekly, 5 million FITC-CAR-T
Experimental: as §1

MDA-MB-231 = experiment: FITC-CAR-T/EC17 therapy, MDA-MB-231 model (Example 28); type: in vivo, NSG mice; details: 500 nmol/kg weekly, 5 million FITC-CAR-T
Experimental: as §1

[2] = system: MDA-MB-231 solid tumor xenografts; experiment: Effect of FITC-Folate dose on anti-FITC CAR T cell response (Example 10); type: in vivo, NSG mice
From the text: Five experimental groups: (1) anti-FITC CAR T cell with PBS; (2) anti-FITC CAR T cell with FITC-Folate (5 nmoles/kg); (3) anti-FITC CAR T cell with FITC-Folate (50 nmoles/kg); (4) anti-FITC CAR T cell with FITC-Folate (500 nmoles/kg); (5) anti-FITC CAR T cell with FITC-Folate (2500 nmoles/kg) were designed to identify the relationship between anti-FITC CAR T cell response and the dose of FITC-ligands. MDA-MB-231 cells were subcutaneously injected into the shoulders of NSG mice (Jackson Laboratory) to establish solid tumor xenografts. When tumor volume reached around 50-100 mm^3, anti-FITC CAR T cells (15×10^6 cells) and different doses of FITC-Folate were intravenously introduced into the mice.
To monitor anti-FITC CAR T cell activation with the different doses of FITC-Folate, IFN-gamma concentration was measured in mouse blood by a bead-based immunoassay (Legendplex kit from Biolegend). Tumor volume was also measured. General toxicity for each treatment group was monitored by measuring weight loss.

Nc1nc2ncc(CNc3ccc(C(=O)NC(CCC(=O)NCCNC(=S)Nc4ccc(-c5c6ccc(=O)cc-6oc6cc(O)ccc56)c(C(=O)O)c4)C(=O)O)cc3)nc2c(=O)[nH]1 (centres unmarked) [EC17, FITC-Folate]
spleen size (FR+ MDA-MB-231 tumors; 500 nmol/kg three times per week): enlarged spleens
body weight (FR+ MDA-MB-231 tumors; EC17 three times per week): body weight loss in the first 10 days
cures (OV90): 50%
stable disease (OV90): 50%
toxicity (body weight loss) (MDA-MB-231 tumor; 20 nmol/kg TIW): least toxicity
toxicity (body weight loss) (MDA-MB-231 tumor; 500 nmol/kg TIW): strongest toxicity
tumor outcome (MDA-MB-231 tumor; 500, 100 or 20 nmol/kg TIW, 10 million CAR-T): all eliminated
optimal bridge dose (highest IFN-γ level) ([1]; 0.001 nM to 100 μM, 6-24 hours): 10 nM
IFN-γ production ([1]; 10 μM and 100 μM): not detected
tumor response (SKOV-3): stable disease
cures (MDA-MB-231): 100%
concentration of IFN-gamma versus FITC-Folate dose ([2]; 5, 50, 500, 2500 nmoles/kg, 15×10^6 CAR T cells): bell-shaped dose-response curve
dose with maximum toxicity (lowest survival rate) and highest anti-tumor efficacy ([2]; 15×10^6 CAR T cells): 500 nmol/kg
anti-tumor efficacy of CAR T cells ([2]; FITC-Folate 2500 nmole/kg): started to decrease
